Key:
PAK1 = PAK1 (Homo sapiens, UniProt Q13153); test: In vitro kinase assay, PAK1 (Caliper EZ Reader conversion); format: biochemical; parameters: purchased Carna Biosciences
Method: (§1) The effect of the compounds on the activity of SRC and PAK1 kinase were assessed. SRC and PAK1 kinase enzymes were obtained from Carna Biosciences.
(§2) Test compounds were dissolved in 100% DMSO to prepare a 20 mM stock. Compounds were stored in −20° C. and protected from light. A 100×solution of the compounds were prepared, from which 4-fold serial dilutions was made to achieve a total of 6 concentrations. Saracatinib was used as a positive control for the SRC assay, and FRAX597 was used as a positive control for the PAK1 assay. For the positive controls, a 3-fold serial dilution was made to achieve a total of 10 concentrations. 10 μL 1× Kinase buffer was used as the negative control.
(§3) First, 250 nL of the compounds at each dilution were transferred into wells of a 384-well plate. The PAK1 and SRC kinases were diluted to a 2.5×final concentration with 1×Kinase buffer. Then, 10 μL of enzyme mix was added to the 384-well plate, and the enzymes and compounds were pre-incubated at room temperature for 10 minutes. […] Then, 15 μL of substrate mix was added to a 384-well plate and reacted at room temperature for 30 min and 60 min. The reaction was stopped by adding 30 μL of the stop buffer, and the conversion rate was read using a Caliper EZ Reader.
(§4) Percent inhibition is calculated according to the following equation: […]
(§5) wherein “Conversion %_sample” is the conversion percentage value of the sample; “Conversion %_min” is the average conversion percentage value of the negative control; and “Conversion %_max” is the average conversion percentage value of the positive control.
(§6) The dose-response curve was fitted using GraphPad Prism software (version 5, […]), and the IC50 values for each compounds were calculated by log(inhibitor) vs. response using a variable slope program with the following formula:
(§7) Y=Bottom+(Top-Bottom)/(1+10^((Log IC50−X)*HillSlope))

SRC = target: T1, SRC (Homo sapiens, UniProt P12931); test: In vitro kinase assay, SRC (Caliper EZ Reader conversion); format: biochemical; settings: read-out: SRC IC50
T1 construct: purchased Carna Biosciences
Method: as §1
as §2, with “A 100×solution of the compounds were prepared, from which 4-fold serial dilutions was made to achieve a total of 6 concentrations.” left out
as §3, with “The PAK1 and SRC kinases were diluted to a 2.5×final concentration with 1×Kinase buffer.” left out
as §4, §5, §6, §7

Chain of PAK1 (Q13153 whole entry): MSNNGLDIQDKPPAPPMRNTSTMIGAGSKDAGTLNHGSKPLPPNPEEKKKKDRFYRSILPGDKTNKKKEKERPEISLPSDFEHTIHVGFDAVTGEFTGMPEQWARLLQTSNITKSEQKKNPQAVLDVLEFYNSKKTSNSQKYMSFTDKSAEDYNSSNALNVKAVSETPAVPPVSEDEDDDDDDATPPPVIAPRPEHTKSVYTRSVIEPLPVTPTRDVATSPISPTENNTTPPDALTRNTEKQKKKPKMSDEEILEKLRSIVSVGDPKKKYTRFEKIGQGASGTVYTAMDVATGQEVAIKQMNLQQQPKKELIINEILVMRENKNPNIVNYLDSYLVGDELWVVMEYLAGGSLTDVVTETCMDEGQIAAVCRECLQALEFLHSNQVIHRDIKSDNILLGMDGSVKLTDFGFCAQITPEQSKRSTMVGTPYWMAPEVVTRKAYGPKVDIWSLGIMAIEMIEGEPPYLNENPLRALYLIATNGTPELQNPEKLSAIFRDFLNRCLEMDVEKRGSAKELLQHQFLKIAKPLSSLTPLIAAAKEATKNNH
T1 sequence (P12931 whole entry): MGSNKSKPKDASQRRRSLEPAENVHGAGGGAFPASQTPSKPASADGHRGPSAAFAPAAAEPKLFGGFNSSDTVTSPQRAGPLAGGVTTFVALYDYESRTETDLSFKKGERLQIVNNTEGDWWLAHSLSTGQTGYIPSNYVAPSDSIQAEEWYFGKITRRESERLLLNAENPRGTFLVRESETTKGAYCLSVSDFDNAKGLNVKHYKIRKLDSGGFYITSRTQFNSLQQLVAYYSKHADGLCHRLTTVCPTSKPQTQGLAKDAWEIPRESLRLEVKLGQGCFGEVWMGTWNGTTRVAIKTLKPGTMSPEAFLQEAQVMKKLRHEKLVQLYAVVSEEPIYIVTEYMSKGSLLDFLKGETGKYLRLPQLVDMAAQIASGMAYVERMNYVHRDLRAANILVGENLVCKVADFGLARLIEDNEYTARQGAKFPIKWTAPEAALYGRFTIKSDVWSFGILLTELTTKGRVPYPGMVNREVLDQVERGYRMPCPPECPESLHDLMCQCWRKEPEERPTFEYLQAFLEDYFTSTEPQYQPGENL

Row | Structure (SMILES) | IC50 (PAK1) [µM] | IC50 (SRC) [µM]
1 | Cc1ccc(NC(=O)c2cccc(C(F)(F)F)c2)cc1C1=Cc2cnc(N)nc2N2CCCN=C12 [Compound 75, N-(3-(2-amino-9,10-dihydro-8H-pyrido[1,6-a:2,3-d′]dipyrimidin-6-yl)-4-methylphenyl)-3-(trifluoromethyl)benzamide] | > 10 | < 0.1
2 | CNc1ncc2c(n1)N1CCN=C1C(c1ccc(-c3cncc(C)n3)cc1Cl)=C2 [Compound 25, 6-(2-chloro-4-(6-methylpyrazin-2-yl)phenyl)-N-methyl-8,9-dihydroimidazo[1′,2′:1,6]pyrido[2,3-d]pyrimidin-2-amine] | 0.1 to 10 | > 10
3 | CN(C)CCOc1ccc(Nc2ncc3c(n2)N2CCN=C2C(c2ccccc2Cl)=C3)cc1 [Compound 22, 6-(2-chlorophenyl)-N-(4-(2-(dimethylamino)ethoxy)phenyl)-8,9-dihydroimidazo[1′,2′:1,6]pyrido[2,3-d]pyrimidin-2-amine] | 0.1 to 10 | < 0.1
4 | Fc1cc(Nc2ncc3c(n2)N2CCN=C2C(c2ccc(Cl)cc2Cl)=C3)ccc1N1CCNCC1 [Compound 1, 6-(2,4-dichlorophenyl)-N-(3-fluoro-4-(piperazin-1-yl)phenyl)-8,9-dihydroimidazo[1′,2′:1,6]pyrido[2,3-d]pyrimidin-2-amine] | < 0.1 | < 0.1
5 | Clc1ccccc1C1=Cc2cnc(NC3COC3)nc2N2CCN=C12 [Compound 21, 6-(2-chlorophenyl)-N-(oxetan-3-yl)-8,9-dihydroimidazo[1′,2′:1,6]pyrido[2,3-d]pyrimidin-2-amine] | > 10 | > 10
6 | COc1nc(N2CCNCC2)ccc1Nc1ncc2c(n1)N1CCN=C1C(c1ccc(Cl)cc1)=C2 [Compound 36, 6-(4-chlorophenyl)-N-(2-methoxy-6-(piperazin-1-yl)pyridin-3-yl)-8,9-dihydroimidazo[1′,2′:1,6]pyrido[2,3-d]pyrimidin-2-amine] | > 10 | 0.1 to 10
7 | Fc1ccccc1Nc1ncc2c(n1)N1CCN=C1C(c1ccc(Cl)cc1Cl)=C2 [Compound 6, 6-(2,4-dichlorophenyl)-N-(2-fluorophenyl)-8,9-dihydroimidazo[1′,2′:1,6]pyrido[2,3-d]pyrimidin-2-amine] | > 10 | 0.1 to 10
8 | CNc1ncc2c(n1)N1CCCN=C1C(c1ccc(N3CCN(C)C3=O)cc1Cl)=C2 [Compound 71, 1-(3-chloro-4-(2-(methylamino)-9,10-dihydro-8H-pyrido[1,6-a:2,3-d′]dipyrimidin-6-yl)phenyl)-3-methylimidazolidin-2-one] | > 10 | > 10
9 | Fc1cc(Nc2ncc3c(n2)N2CCN=C2C(c2ccccc2)=C3)ccc1N1CCNCC1 [Compound 27, N-(3-fluoro-4-(piperazin-1-yl)phenyl)-6-phenyl-8,9-dihydroimidazo[1′,2′:1,6]pyrido[2,3-d]pyrimidin-2-amine] | > 10 | < 0.1
10 | COc1ccccc1C1=Cc2cnc(Nc3ccc(N4CCNCC4)cc3F)nc2N2CCN=C12 [Compound 31, N-(2-fluoro-4-(piperazin-1-yl)phenyl)-6-(2-methoxyphenyl)-8,9-dihydroimidazo[1′,2′:1,6]pyrido[2,3-d]pyrimidin-2-amine] | > 10 | 0.1 to 10
11 | CNc1ncc2c(n1)N1CCN=C1C(c1ccc(N3CCN(C)C3=O)cc1Cl)=C2 [Compound 23, 1-(3-chloro-4-(2-(methylamino)-8,9-dihydroimidazo[1′,2′:1,6]pyrido[2,3-d]pyrimidin-6-yl)phenyl)-3-methylimidazolidin-2-one] | 0.1 to 10 | > 10
12 | COc1nc(N2CCNCC2)ccc1Nc1ncc2c(n1)N1CCN=C1C(C#Cc1cccnc1)=C2 [Compound 40, N-(2-methoxy-6-(piperazin-1-yl)pyridin-3-yl)-6-(pyridin-3-ylethynyl)-8,9-dihydroimidazo[1′,2′:1,6]pyrido[2,3-d]pyrimidin-2-amine] | > 10 | > 10

Results, then the compound that gave them:

Row | IC50 (PAK1) [µM] | IC50 (SRC) [µM] | Structure (SMILES)
13 | > 10 | > 10 | CNc1ncc2c(n1)N1CCCN=C1C(c1ccc(-n3ccnc(C)c3=O)cc1)=C2 [Compound 64, 3-methyl-1-(4-(2-(methylamino)-9,10-dihydro-8H-pyrido[1,6-a:2,3-d′]dipyrimidin-6-yl)phenyl)pyrazin-2(1H)-one]
14 | 0.1 to 10 | > 10 | CNc1ncc2c(n1)N1CCCN=C1C(c1ccc(-n3cccc(C)c3=O)cc1Cl)=C2 [Compound 72, 1-(3-chloro-4-(2-(methylamino)-9,10-dihydro-8H-pyrido[1,6-a:2,3-d′]dipyrimidin-6-yl)phenyl)-3-methylpyridin-2(1H)-one]
15 | > 10 | 0.1 to 10 | Clc1ccc(C2=Cc3cnc(Nc4ccncc4)nc3N3CCN=C23)c(Cl)c1 [Compound 47, 6-(2,4-dichlorophenyl)-N-(pyridin-4-yl)-8,9-dihydroimidazo[1′,2′:1,6]pyrido[2,3-d]pyrimidin-2-amine]
16 | > 10 | 0.1 to 10 | Fc1cc(N2CCNCC2)ccc1Nc1ncc2c(n1)N1CCCN=C1C(c1ccc(Cl)cc1Cl)=C2 [Compound 68, 6-(2,4-dichlorophenyl)-N-(2-fluoro-4-(piperazin-1-yl)phenyl)-9,10-dihydro-8H-pyrido[1,6-a:2,3-d′]dipyrimidin-2-amine]
17 | 0.1 to 10 | < 0.1 | CCN1CCN(c2ccc(Nc3ncc4c(n3)N3CCN=C3C(c3ccc(Cl)cc3Cl)=C4)cc2F)CC1 [Compound 3, 6-(2,4-dichlorophenyl)-N-(4-(4-ethylpiperazin-1-yl)-3-fluorophenyl)-8,9-dihydroimidazo[1′,2′:1,6]pyrido[2,3-d]pyrimidin-2-amine]
18 | > 10 | < 0.1 | Fc1ccc(Nc2ncc3c(n2)N2CCN=C2C(c2ccccc2Cl)=C3)cc1 [Compound 19, 6-(2-chlorophenyl)-N-(4-fluorophenyl)-8,9-dihydroimidazo[1′,2′:1,6]pyrido[2,3-d]pyrimidin-2-amine]
19 | > 10 | 0.1 to 10 | Clc1ccccc1C1=Cc2cnc(Nc3ccncc3)nc2N2CCN=C12 [Compound 16, 6-(2-chlorophenyl)-N-(pyridin-4-yl)-8,9-dihydroimidazo[1′,2′:1,6]pyrido[2,3-d]pyrimidin-2-amine]
20 | > 10 | > 10 | Clc1cnccc1C1=Cc2cnc(Nc3ccncc3)nc2N2CCN=C12 [Compound 46, 6-(3-chloropyridin-4-yl)-N-(pyridin-4-yl)-8,9-dihydroimidazo[1′,2′:1,6]pyrido[2,3-d]pyrimidin-2-amine]
21 | > 10 | 0.1 to 10 | COc1nc(N2CCNCC2)ccc1Nc1ncc2c(n1)N1CCCN=C1C(c1ccc(Cl)cc1Cl)=C2 [Compound 70, 6-(2,4-dichlorophenyl)-N-(2-methoxy-6-(piperazin-1-yl)pyridin-3-yl)-9,10-dihydro-8H-pyrido[1,6-a:2,3-d′]dipyrimidin-2-amine]
22 | 0.1 to 10 | < 0.1 | Fc1cc(N2CCNCC2)ccc1Nc1ncc2c(n1)N1CCN=C1C(c1ccccc1Cl)=C2 [Compound 12, 6-(2-chlorophenyl)-N-(2-fluoro-4-(piperazin-1-yl)phenyl)-8,9-dihydroimidazo[1′,2′:1,6]pyrido[2,3-d]pyrimidin-2-amine]
23 | > 10 | 0.1 to 10 | C1=C(c2ccccn2)C2=NCCN2c2nc(Nc3ccncc3)ncc21 [Compound 44, 6-(pyridin-2-yl)-N-(pyridin-4-yl)-8,9-dihydroimidazo[1′,2′:1,6]pyrido[2,3-d]pyrimidin-2-amine]

— patent US20230303570A1, “KINASE INHIBITORS AND USES THEREOF” (ABM Therapeutics Corporation, priority 2020, published 2023)
